Data on three compounds can be found in article PMC9350523 (Dose-Response, 2022).

One experiment deals with BRAF. The conditions noted are these: cited from earlier work.
Experiment [1] relates to glutamine synthetase 2 (GS2). The following applies: cited from earlier work.
The next experiment deals with human PCNA (Homo sapiens, UniProt P12004). The experiment is described as follows: Fluorescence anisotropy competition: displacement of 50 nM PL peptide from PCNA. Type of experiment: binding. The following applies: for f (hormesis parameter): f not different from 0 (95% confidence interval), no significant hormesis. Background: In fluorescence polarisation assays a small probe gives low polarisation when free and higher when bound to something large.

The mark [2] stands for this setting: GS2 from chloroplasts of Lotus corniculatus.
Setting [3] is: UNG2(a.a.1-19) competitor, .25 μM PCNA, hormetic curve.

Ends that are not written are not given here.

Sequence of human PCNA (P12004 whole entry): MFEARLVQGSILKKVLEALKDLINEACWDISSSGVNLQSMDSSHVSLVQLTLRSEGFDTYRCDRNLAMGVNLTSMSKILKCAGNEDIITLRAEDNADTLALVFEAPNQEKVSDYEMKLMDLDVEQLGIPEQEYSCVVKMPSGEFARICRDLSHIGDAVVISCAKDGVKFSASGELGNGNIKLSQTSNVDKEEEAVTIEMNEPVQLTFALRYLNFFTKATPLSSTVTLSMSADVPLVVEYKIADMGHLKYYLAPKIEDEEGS

For the compound `CC(C)(C)c1nc(-c2cccc(NS(=O)(=O)c3c(F)cccc3F)c2F)c(-c2ccnc(N)n2)s1` [dabrafenib], the mode of inhibition result in the experiment with BRAF is reported as “competitive with ATP”.

For `CS(=N)(=O)CC[C@H](N)C(=O)O` (stereo partly shown) [methionine sulfoximine], in experiment [1] (GS2), the mode of inhibition entry was “competitive with glutamate and a somewhat irreversible inhibitor”. Also, in experiment [1] (setting [2]), the “GS2 activity at high methionine sulfoximine doses” value was “completely inhibit the enzyme” and the “GS2 activity at low methionine sulfoximine concentrations” value is listed as “allosteric stimulatory effect on other subunits of the octamer”.

MIGQKTLYSFFSPSPARKR [UNG2(a.a.1-19)]: the “b (slope parameter)” value on human PCNA (UNG2(a.a.1-19) competitor, 1 μM PCNA, 50 nM PL peptide, hormetic curve) is reported as 1.497; at human PCNA (UNG2(a.a.1-19) competitor, 1 μM PCNA, 50 nM PL peptide, standard curve), 1.143; at human PCNA (UNG2(a.a.1-19) competitor, .25 μM PCNA, 50 nM PL peptide, hormetic curve) it was 2.798; at human PCNA (UNG2(a.a.1-19) competitor, .25 μM PCNA, 50 nM PL peptide, standard curve) it was 3.423. Further, the “f (hormesis parameter)” value on human PCNA (UNG2(a.a.1-19) competitor, 1 μM PCNA, hormetic curve) is listed as “.0044^ c”; at human PCNA (setting [3]) it was “.0013^ c”. Also, the “c (lower asymptote)” value on human PCNA (setting [3]) was “.0572”. For the same compound, the “displacement / hormetic response” value on human PCNA (UNG2(a.a.1-19), .25 and 1 μM PCNA, 50 nM PL peptide) is “displaced PL peptide from PCNA without a hormetic response”. The “control: PL peptide anisotropy in the absence of PCNA” value at human PCNA (competitor included in the cuvette without PCNA) is listed as “the fluorescence anisotropy of PL peptide was unchanged”.
